Laboratory results reported in ChEMBL document CHEMBL4190314, “Quinoline hybrids and their antiplasmodial and antimalarial activities” (Eur J Med Chem, 2017).
Each block holds one compound with its values, some of them ahead of it.

Assays:
Type in all cases: functional, organism-based
[1] = test system: Plasmodium falciparum; assay: Antimalarial activity against synchronous culture of Plasmodium falciparum W2 ring stage infected in human erythrocytes after 48 hrs by flow cytometry; settings: W2, 48 h
[2] = test system: Plasmodium falciparum; assay: Antimalarial activity against Plasmodium falciparum 3D7 infected in human erythrocytes after 72 hrs by SYBR Green-1 staining based fluorescence assay; settings: 3D7, 72 h
[3] = test system: Plasmodium falciparum; assay: Antimalarial activity against chloroquine-sensitive Plasmodium falciparum 3D7 infected in human erythrocytes after 72 hrs by SYBR Green-1 staining based fluorescence assay; settings: 3D7, 72 h
[4] = test system: Plasmodium falciparum; assay: Antimalarial activity against chloroquine-sensitive Plasmodium falciparum 3D7 infected in human type A+ erythrocytes after 48 hrs by [3H]-hypoxanthine incorporation assay
[5] = test system: Plasmodium falciparum; assay: Antimalarial activity against chloroquine-resistant Plasmodium falciparum K1 infected in human type A+ erythrocytes after 48 hrs by [3H]-hypoxanthine incorporation assay
[6] = test system: Plasmodium falciparum; assay: Antimalarial activity against chloroquine-sensitive Plasmodium falciparum D6 infected in human red blood cells assessed as reduction in parasitic LDH activity by Malstat reagent based spectrophotometric method
[7] = test system: Plasmodium falciparum; assay: Antimalarial activity against chloroquine-resistant Plasmodium falciparum W2 infected in human red blood cells assessed as reduction in parasitic LDH activity by Malstat reagent based spectrophotometric method
[8] = test system: Plasmodium falciparum; assay: Antimalarial activity against chloroquine-sensitive Plasmodium falciparum 3D7 infected in human type A+ erythrocytes after 24 hrs by [3H]-hypoxanthine incorporation assay
[9] = test system: Plasmodium falciparum; assay: Antimalarial activity against chloroquine-resistant Plasmodium falciparum W2 infected in human type A+ erythrocytes after 24 hrs by [3H]-hypoxanthine incorporation assay

IC50 [1]: 11 to 59 nM
Structure (SMILES): O=C(/C=C/c1ccccc1)NCCCCNc1ccnc2cc(Cl)ccc12

IC50 [1]: 11 to 59 nM
Structure (SMILES): Cc1ccc(/C=C/C(=O)NCCCCNc2ccnc3cc(Cl)ccc23)cc1

IC50 [1]: 11 to 59 nM
Structure (SMILES): CC(C)c1ccc(/C=C/C(=O)NCCCCNc2ccnc3cc(Cl)ccc23)cc1

IC50 [1]: 11 to 59 nM
Structure (SMILES): COc1ccc(/C=C/C(=O)NCCCCNc2ccnc3cc(Cl)ccc23)cc1

IC50 [1]: 11 to 59 nM
Structure (SMILES): Nc1ccc(/C=C/C(=O)NCCCCNc2ccnc3cc(Cl)ccc23)cc1

IC50 [1]: 11 to 59 nM
Structure (SMILES): O=C(/C=C/c1cccc(F)c1)NCCCCNc1ccnc2cc(Cl)ccc12

IC50 [1]: 11 to 59 nM
Structure (SMILES): O=C(/C=C/c1ccc(F)cc1)NCCCCNc1ccnc2cc(Cl)ccc12

IC50 [1]: 11 to 59 nM
Structure (SMILES): O=C(/C=C/c1ccc(Cl)cc1)NCCCCNc1ccnc2cc(Cl)ccc12

IC50 [1]: 11 to 59 nM
Structure (SMILES): O=C(/C=C/c1ccc(Br)cc1)NCCCCNc1ccnc2cc(Cl)ccc12

IC50 [1]: 11 to 59 nM
Structure (SMILES): O=C(/C=C/c1ccccc1[N+](=O)[O-])NCCCCNc1ccnc2cc(Cl)ccc12

IC50 [1]: 11 to 59 nM
Structure (SMILES): O=C(/C=C/c1cccc([N+](=O)[O-])c1)NCCCCNc1ccnc2cc(Cl)ccc12

IC50 [1]: 11 to 59 nM
Structure (SMILES): O=C(/C=C/c1ccc([N+](=O)[O-])cc1)NCCCCNc1ccnc2cc(Cl)ccc12

IC50 [1]: 11 to 59 nM
Structure (SMILES): CN(C)c1ccc(/C=C/C(=O)NCCCCNc2ccnc3cc(Cl)ccc23)cc1

IC50 [1]: 11 to 59 nM
Structure (SMILES): COc1ccc(/C=C/C(=O)NCCCCNc2ccnc3cc(Cl)ccc23)cc1OC

IC50 [2]: < 100 nM
Structure (SMILES): C=C[C@H]1CN2CC[C@H]1C[C@H]2[C@H](OC(=O)[C@H](CCCCNC(=O)OCc1ccccc1)NC(=O)OCc1ccccc1)c1ccnc2ccc(OC)cc12

IC50 [3]: 12 to 207 nM
Structure (SMILES): C=C[C@H]1CN2CC[C@H]1C[C@H]2[C@H](OC(=O)CNC(=O)c1cn(C2CC2)c2cc(N3CCN(CC)CC3)c(F)cc2c1=O)c1ccnc2ccc(OC)cc12

IC50 [2]: < 100 nM
Structure (SMILES): C=C[C@H]1CN2CC[C@H]1C[C@H]2[C@H](OC(=O)[C@H](Cc1cn(S(=O)(=O)c2ccc(C)cc2)cn1)NC(=O)OC(C)(C)C)c1ccnc2ccc(OC)cc12

Structure (SMILES): O=C1OC(CN2CCN(c3ccccc3F)CC2)CN1CCCNc1ccnc2cc(Cl)ccc12 (configuration not stated)
IC50 [4]: 62 to 430 nM | IC50 [5]: 62 to 430 nM

Structure (SMILES): O=C1OC(CN2CCN(c3ccc(F)cc3)CC2)CN1CCNc1ccnc2cc(Cl)ccc12 (configuration not stated)
IC50 [4]: 62 to 430 nM | IC50 [5]: 62 to 430 nM

Structure (SMILES): Cc1cccc(C)c1Nc1nc(OCc2cn(CCNc3ccnc4cc(Cl)ccc34)nn2)nc(N(C)C)n1
IC50 [6]: 580 nM | IC50 [7]: 730 nM

IC50 [3]: 12 to 207 nM
Structure (SMILES): C=C[C@H]1CN2CC[C@H]1C[C@H]2[C@H](OC(=O)[C@H](Cc1ccccc1)NC(=O)c1cn2c3c(c(N4CCN(C)CC4)c(F)cc3c1=O)OC[C@@H]2C)c1ccnc2ccc(OC)cc12

Structure (SMILES): O[C@@]12OOC3(C=C1C[C@@H]1C=C[C@H]2C1)CCN(c1ccnc2cc(Cl)ccc12)CC3
IC50 [8]: 6050 to 6750 nM | IC50 [9]: 6050 to 6750 nM

IC50 [3]: 12 to 207 nM
Structure (SMILES): C=C[C@H]1CN2CC[C@H]1C[C@H]2[C@H](OC(=O)[C@H](C)NC(=O)c1cn(CC)c2nc(C)ccc2c1=O)c1ccnc2ccc(OC)cc12

Structure (SMILES): C=C[C@H]1CN2CC[C@H]1C[C@H]2[C@H](OC(=O)[C@H](C)NC(=O)OC(C)(C)C)c1ccnc2ccc(OC)cc12
IC50 [2]: < 100 nM

IC50 [2]: < 100 nM
Structure (SMILES): C=C[C@H]1CN2CC[C@H]1C[C@H]2[C@H](OC(=O)CNC(=O)[C@@H](NC(=O)OCc1ccccc1)[C@@H](C)CC)c1ccnc2ccc(OC)cc12

Structure (SMILES): O=C1OC(CN2CCN(c3ccccc3F)CC2)CN1CCCCCCNc1ccnc2cc(Cl)ccc12 (configuration not stated)
IC50 [4]: 62 to 430 nM | IC50 [5]: 62 to 430 nM

IC50 [3]: 12 to 207 nM
Structure (SMILES): C=C[C@H]1CN2CC[C@H]1C[C@H]2[C@H](OC(=O)[C@H](CC(C)C)NC(=O)c1cn(CC)c2nc(C)ccc2c1=O)c1ccnc2ccc(OC)cc12

IC50 [3]: 12 to 207 nM
Structure (SMILES): C=C[C@H]1CN2CC[C@H]1C[C@H]2[C@H](OC(=O)[C@@H](NC(=O)c1cn(C2CC2)c2cc(N3CCN(CC)CC3)c(F)cc2c1=O)[C@@H](C)CC)c1ccnc2ccc(OC)cc12

IC50 [3]: 12 nM
Structure (SMILES): C=C[C@H]1CN2CC[C@H]1C[C@H]2[C@H](OC(=O)[C@H](C)NC(=O)c1cn2c3c(c(N4CCN(C)CC4)c(F)cc3c1=O)OC[C@@H]2C)c1ccnc2ccc(OC)cc12

IC50 [3]: 12 to 207 nM
Structure (SMILES): C=C[C@H]1CN2CC[C@H]1C[C@H]2[C@H](OC(=O)CNC(=O)c1cn2c3c(c(N4CCN(C)CC4)c(F)cc3c1=O)OC[C@@H]2C)c1ccnc2ccc(OC)cc12

Structure (SMILES): COc1ccccc1N1CCN(CC2CN(CCNc3ccnc4cc(Cl)ccc34)C(=O)O2)CC1 (configuration not stated)
IC50 [4]: 62 to 430 nM | IC50 [5]: 62 to 430 nM

IC50 [2]: < 100 nM
Structure (SMILES): C=C[C@H]1CN2CC[C@H]1C[C@H]2[C@H](OC(=O)[C@@H](CSCc1ccccc1)NC(=O)OCc1ccccc1)c1ccnc2ccc(OC)cc12

Structure (SMILES): C=C[C@H]1CN2CC[C@H]1C[C@H]2[C@H](OC(=O)CNC(=O)OC(C)(C)C)c1ccnc2ccc(OC)cc12
IC50 [2]: < 100 nM

IC50 [2]: < 100 nM
Structure (SMILES): C=C[C@H]1CN2CC[C@H]1C[C@H]2[C@H](OC(=O)[C@H](C)NC(=O)[C@H](Cc1ccccc1)NC(=O)CNC(=O)OCc1ccccc1)c1ccnc2ccc(OC)cc12

IC50 [3]: 12 to 207 nM
Structure (SMILES): C=C[C@H]1CN2CC[C@H]1C[C@H]2[C@H](OC(=O)CNC(=O)c1cn(CC)c2nc(C)ccc2c1=O)c1ccnc2ccc(OC)cc12

IC50 [2]: < 100 nM
Structure (SMILES): C=C[C@H]1CN2CC[C@H]1C[C@H]2[C@H](OC(=O)[C@H](COCc1ccccc1)NC(=O)OC(C)(C)C)c1ccnc2ccc(OC)cc12

Structure (SMILES): O=C1OC(CN2CCN(c3ccccc3F)CC2)CN1CCCCNc1ccnc2cc(Cl)ccc12 (configuration not stated)
IC50 [4]: 62 to 430 nM | IC50 [5]: 62 to 430 nM

Structure (SMILES): O=C1OC(CN2CCN(c3ccccc3F)CC2)CN1CCNc1ccnc2cc(Cl)ccc12 (configuration not stated)
IC50 [4]: 62 to 430 nM | IC50 [5]: 62 to 430 nM

Structure (SMILES): COc1ccc(OCc2cn(CCNc3ccnc4cc(Cl)ccc34)nn2)cc1
IC50 [6]: 650 nM | IC50 [7]: 1120 nM

IC50 [2]: < 100 nM
Structure (SMILES): C=C[C@H]1CN2CC[C@H]1C[C@H]2[C@H](OC(=O)[C@H](Cc1ccccc1)NC(=O)OC(C)(C)C)c1ccnc2ccc(OC)cc12

IC50 [2]: < 100 nM
Structure (SMILES): C=C[C@H]1CN2CC[C@H]1C[C@H]2[C@H](OC(=O)[C@H](CCC(=O)OCc1ccccc1)NC(=O)OC(C)(C)C)c1ccnc2ccc(OC)cc12

IC50 [2]: 17 nM
Structure (SMILES): C=C[C@H]1CN2CC[C@H]1C[C@H]2[C@H](OC(=O)[C@H](CC(=O)OCc1ccccc1)NC(=O)OCc1ccccc1)c1ccnc2ccc(OC)cc12

Structure (SMILES): O=C1OC(CN2CCN(c3ccccc3Cl)CC2)CN1CCNc1ccnc2cc(Cl)ccc12 (configuration not stated)
IC50 [4]: 62 to 430 nM | IC50 [5]: 62 to 430 nM

Structure (SMILES): CO[C@@]12OOC3(C=C1C[C@@H]1C=C[C@H]2C1)CCN(c1ccnc2cc(Cl)ccc12)CC3
IC50 [8]: 185 to 240 nM | IC50 [9]: 185 to 240 nM

Structure (SMILES): O=C1OC(CN2CCN(c3ccccc3)CC2)CN1CCNc1ccnc2cc(Cl)ccc12 (configuration not stated)
IC50 [4]: 62 to 430 nM | IC50 [5]: 62 to 430 nM

Structure (SMILES): O[C@@]12OOC3(C=C1C[C@@H]1CC[C@H]2C1)CCN(c1ccnc2cc(Cl)ccc12)CC3
IC50 [8]: 1400 to 2450 nM | IC50 [9]: 1400 to 2450 nM

Structure (SMILES): C[C@@H]1CC[C@H]2[C@@H](C)C(=O)O[C@@H]3O[C@@]4(C)CC[C@@H]1[C@]32OO4 [ARTEMISININ]
IC50 [9]: 19 nM

IC50 [3]: > 20000 nM
Structure (SMILES): C[C@H]1COc2c(N3CCN(C)CC3)c(F)cc3c(=O)c(C(=O)O)cn1c23 [LEVOFLOXACIN]

Structure (SMILES): C=C[C@H]1CN2CC[C@H]1C[C@H]2[C@H](O)c1ccnc2ccc(OC)cc12 [QUININE]
IC50 [2]: 18 nM
